In US10450301B2, “Apoptosis signal-regulating kinase 1 inhibitors and methods of use thereof” (ENANTA PHARMACEUTICALS, INC., priority 2017, dated 2019):

molecular target: ASK1 (Homo sapiens (Human), UniProt Q99683); assay: HTRF KinEASE Assay (TR-FRET, STK3 peptide substrate), inhibition of ASK1; assay type: biochemical; conditions: 5 nM ASK1 kinase, 1 μM STK3 peptide substrate, 100 μM ATP, 3 hours; compound 0 to 10 μM
Procedure: Assay HTRF® KinEASE™ Assay
ASK1 was purchased from Thermofisher (Catalogue # PV4011), ATP was purchased from Sigma (Catalogue # A7699), HI-TRF® KinEASE™ Assay System was obtained from Cisbio (Bedford, Mass.). […] HTRF® KinEASE™-STK is a generic method for measuring serine/threonine kinase activities using a time-resolved fluorescence resonance energy transfer (TR-FRET) immunoassay. […] 100 Um ATP is added to start kinase reaction and incubated for 3 hours. The STK3-antibody labeled with Eu^3+-Cryptate and 125 Nm streptavidin-XL665 are mixed in a single addition with stop reagents provided by the Cisbio kit used to stop the kinase reaction. […] The resulting TR-FRET is proportional to the phosphorylation level. Staurosporine was used as the positive control. IC50 was determined by Xlfit 5.3.
By using above method, the inhibition of ASK1 was evaluated for the compounds of Formula (I).

ASK1, sequence (Q99683 whole entry): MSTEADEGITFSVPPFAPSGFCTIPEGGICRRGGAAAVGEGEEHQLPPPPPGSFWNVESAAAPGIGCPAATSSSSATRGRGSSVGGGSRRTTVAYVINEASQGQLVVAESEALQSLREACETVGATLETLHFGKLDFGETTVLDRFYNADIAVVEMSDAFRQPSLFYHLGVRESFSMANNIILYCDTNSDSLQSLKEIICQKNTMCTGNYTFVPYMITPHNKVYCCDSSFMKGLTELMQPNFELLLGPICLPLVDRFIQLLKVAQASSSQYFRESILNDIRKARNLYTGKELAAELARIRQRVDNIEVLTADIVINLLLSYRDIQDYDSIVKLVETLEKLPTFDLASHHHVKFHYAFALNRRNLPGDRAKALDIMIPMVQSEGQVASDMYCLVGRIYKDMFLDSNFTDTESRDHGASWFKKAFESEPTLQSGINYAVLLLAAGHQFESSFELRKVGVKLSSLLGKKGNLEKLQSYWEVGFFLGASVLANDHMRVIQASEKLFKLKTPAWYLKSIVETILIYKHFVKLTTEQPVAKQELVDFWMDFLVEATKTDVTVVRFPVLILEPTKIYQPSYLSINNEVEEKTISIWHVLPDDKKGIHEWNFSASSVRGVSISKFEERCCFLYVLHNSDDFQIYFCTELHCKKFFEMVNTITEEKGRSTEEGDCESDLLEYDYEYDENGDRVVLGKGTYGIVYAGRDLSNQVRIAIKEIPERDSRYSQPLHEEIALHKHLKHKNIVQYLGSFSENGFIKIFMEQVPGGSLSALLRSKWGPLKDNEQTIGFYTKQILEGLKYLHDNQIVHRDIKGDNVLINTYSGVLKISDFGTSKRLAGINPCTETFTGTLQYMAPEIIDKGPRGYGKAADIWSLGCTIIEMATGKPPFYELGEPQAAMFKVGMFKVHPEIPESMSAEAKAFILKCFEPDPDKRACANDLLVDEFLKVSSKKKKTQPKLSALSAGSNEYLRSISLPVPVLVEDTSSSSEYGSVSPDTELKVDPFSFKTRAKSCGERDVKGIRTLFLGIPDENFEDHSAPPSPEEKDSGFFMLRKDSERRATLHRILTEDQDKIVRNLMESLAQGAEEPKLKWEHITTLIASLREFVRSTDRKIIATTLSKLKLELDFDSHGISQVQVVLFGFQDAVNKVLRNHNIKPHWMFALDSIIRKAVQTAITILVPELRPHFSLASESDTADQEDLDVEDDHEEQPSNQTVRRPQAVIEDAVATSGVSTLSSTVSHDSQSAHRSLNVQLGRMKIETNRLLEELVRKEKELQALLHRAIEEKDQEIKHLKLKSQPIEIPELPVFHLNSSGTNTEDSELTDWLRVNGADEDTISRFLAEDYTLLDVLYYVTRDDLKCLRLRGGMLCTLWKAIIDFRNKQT

| Compound | IC50 [nM] |
| --- | --- |
| CC(C)n1nnnc1-c1cccc(NC(=O)c2cc3c(cc2F)CCN(C(=O)N(C)C2CCCC2)C3)n1 [Example 78] | 10 to 100 |
| CC(=O)OC[C@@H](C)n1nnnc1-c1cccc(NC(=O)c2cc3c(cc2F)CCNC3)n1 [Example 81] | > 1000 |
| C[C@H](CO)n1nnnc1-c1cccc(NC(=O)c2cc3c(cc2F)CCN(S(=O)(=O)CCC(F)(F)F)C3)n1 [Example 82] | 1 to 10 |
| CC(C)c1nnnn1-c1cccc(NC(=O)c2cc3c(cc2F)CCN(C(=O)OCc2ccccc2)C3)n1 [Example 83, benzyl 6-fluoro-7-((6-(5-isopropyl-1H-tetrazol-1-yl)pyridin-2-yl)carbamoyl)-3,4-dihydroisoquinoline-2(1H)-carboxylate] | > 1000 |
| CC(=O)OC[C@@H](C)n1nnnc1-c1cccc(NC(=O)c2cc3c(cc2F)CCN(S(=O)(=O)CCC(F)(F)F)C3)n1 [Example 84] | > 1000 |
| CC(C)n1nnnc1-c1cccc(NC(=O)c2cc3c(cc2F)CCN(S(=O)(=O)C2CCCC2)C3)n1 [Example 85] | 10 to 100 |
| CC(C)n1nnnc1-c1cccc(NC(=O)c2cc3c(cc2F)CCN(C(=O)N2CCN(C)CC2)C3)n1 [Example 91] | 10 to 100 |
| CC(C)n1nnnc1-c1cccc(NC(=O)c2cc3c(cc2F)CCN(C(=O)N2CCOCC2)C3)n1 [Example 92] | 10 to 100 |
| CC(C)c1nnnn1-c1cccc(NC(=O)c2cc3c(cc2F)CCN(C(=O)N(C)CCC(F)(F)F)C3)n1 [Example 99] | 100 to 1000 |
| CC(C)c1nnnn1-c1cccc(NC(=O)c2cc3c(cc2F)CCN(S(=O)(=O)CCC(F)(F)F)C3)n1 [Example 100] | > 1000 |
| CCN(C)C(=O)N1CCc2cc(F)c(C(=O)Nc3cccc(-n4nnnc4C(C)C)n3)cc2C1 [Example 101] | > 1000 |
| CC(C)n1nnnc1-c1cccc(NC(=O)c2cc3c(cc2F)CCN(S(=O)(=O)CC2CC(F)(F)C2)C3)n1 [Example 102] | 10 to 100 |
| CC(C)n1nnnc1-c1cccc(NC(=O)c2cc3c(cc2F)CCN(C(=O)N2CCS(=O)(=O)CC2)C3)n1 [Example 104] | 10 to 100 |
| CC(C)n1nnnc1-c1cccc(NC(=O)c2cc3c(cc2F)CCN(C(=O)N2CCSCC2)C3)n1 [Example 105] | 10 to 100 |
| CC(C)n1nnnc1-c1cccc(NC(=O)c2cc3c(cc2F)CCN(C(=O)N2C[C@@H](C)O[C@@H](C)C2)C3)n1 [Example 106] | 10 to 100 |
| CC(=O)OC[C@@H](C)n1nnnc1-c1cccc(NC(=O)c2cc3c(cc2F)CCN(C(=O)OCc2ccccc2)C3)n1 [Example 109] | > 1000 |
| CC(C)n1nnnc1-c1cccc(NC(=O)c2cc3c(cn2)CCN(S(=O)(=O)C2CC2)C3)n1 [Example 110, 6-(cyclopropylsulfonyl)-N-(6-(1-isopropyl-1H-tetrazol-5-yl)pyridin-2-yl)-5,6,7,8-tetrahydro-2,6-naphthyridine-3-carboxamide] | 1 to 10 |
| CC(C)n1nnnc1-c1cccc(NC(=O)c2cc3c(cn2)CCN(S(=O)(=O)N(C)C)C3)n1 [Example 111] | 10 to 100 |
| CC(C)n1nnnc1-c1cccc(NC(=O)c2cc3c(cn2)CCN(C(=O)N(C)C2CCCC2)C3)n1 [Example 112] | 10 to 100 |
| CCN(CC)C(=O)N1CCc2cnc(C(=O)Nc3cccc(-c4nnnn4C(C)C)n3)cc2C1 [Example 113] | 1 to 10 |
| CC(C)n1nnnc1-c1cccc(NC(=O)c2cc3c(cn2)CCN(C(=O)N(C)CCC(F)(F)F)C3)n1 [Example 114] | 10 to 100 |
| CCN(C)C(=O)N1CCc2cnc(C(=O)Nc3cccc(-c4nnnn4C(C)C)n3)cc2C1 [Example 115] | 1 to 10 |
| CC(C)n1nnnc1-c1cccc(NC(=O)c2cc3c(cn2)CCN(C(=O)N(C)C)C3)n1 [Example 116] | 1 to 10 |
| CCNC(=O)N1CCc2cnc(C(=O)Nc3cccc(-c4nnnn4C(C)C)n3)cc2C1 [Example 117] | 1 to 10 |
| CCOC(=O)N1CCc2cnc(C(=O)Nc3cccc(-c4nnnn4C(C)C)n3)cc2C1 [Example 118] | 1 to 10 |
| CC(C)n1nnnc1-c1cccc(NC(=O)c2cc3c(cn2)CCN(C(=O)C2CCCC2)C3)n1 [Example 119] | 1 to 10 |
| C[C@H](CO)n1nnnc1-c1cccc(NC(=O)c2cc3c(cn2)CCN(S(=O)(=O)c2ccccc2)C3)n1 [Example 120] | 1 to 10 |
| C[C@H](CO)n1nnnc1-c1cccc(NC(=O)c2cc3c(cn2)CCN(C(=O)c2ccc(F)cc2)C3)n1 [Example 121] | 1 to 10 |
| COCCC(=O)N1CCc2cnc(C(=O)Nc3cccc(-c4nnnn4[C@H](C)CO)n3)cc2C1 [Example 122] | 1 to 10 |
| C[C@H](CO)n1nnnc1-c1cccc(NC(=O)c2cc3c(cn2)CCN(C(=O)CCC(F)(F)F)C3)n1 [Example 123] | 1 to 10 |

Other lines, results leading:

| IC50 [nM] | Compound |
| --- | --- |
| 10 to 100 | CC(C)n1nnnc1-c1cccc(NC(=O)c2cc3c(cc2F)CCN(C(=O)N(C)CC(F)(F)F)C3)n1 [Example 77] |
| 10 to 100 | CC(C)CN(C)C(=O)N1CCc2cc(F)c(C(=O)Nc3cccc(-c4nnnn4C(C)C)n3)cc2C1 [Example 79] |
| 10 to 100 | CC(C)N(C)C(=O)N1CCc2cc(F)c(C(=O)Nc3cccc(-c4nnnn4C(C)C)n3)cc2C1 [Example 80] |
| 10 to 100 | CC(C)CS(=O)(=O)N1CCc2cc(F)c(C(=O)Nc3cccc(-c4nnnn4C(C)C)n3)cc2C1 [Example 86] |
| 10 to 100 | CC(C)n1nnnc1-c1cccc(NC(=O)c2cc3c(cc2F)CCN(S(=O)(=O)CC2CC2)C3)n1 [Example 87] |
| > 1000 | CC(C)n1nnnc1-c1cccc(NC(=O)c2cc3c(cc2F)CCN(S(=O)(=O)C2CC2)C3)n1 [Example 88] |
| 10 to 100 | CC(C)n1nnnc1-c1cccc(NC(=O)c2cc3c(cc2F)CCN(S(=O)(=O)N(C)C)C3)n1 [Example 89] |
| 10 to 100 | CCN1CCN(C(=O)N2CCc3cc(F)c(C(=O)Nc4cccc(-c5nnnn5C(C)C)n4)cc3C2)C(=O)C1=O [Example 90] |
| 10 to 100 | CC(C)n1nnnc1-c1cccc(NC(=O)c2cc3c(cc2F)CCN(C(=O)N2CCCC2)C3)n1 [Example 93] |
| 1 to 10 | CCN(CC)C(=O)N1CCc2cc(F)c(C(=O)Nc3cccc(-c4nnnn4C(C)C)n3)cc2C1 [Example 94] |
| 10 to 100 | CCN(C)C(=O)N1CCc2cc(F)c(C(=O)Nc3cccc(-c4nnnn4C(C)C)n3)cc2C1 [Example 95] |
| 10 to 100 | CC(C)n1nnnc1-c1cccc(NC(=O)c2cc3c(cc2F)CCN(C(=O)N(C)C)C3)n1 [Example 96] |
| 10 to 100 | CC(C)n1nnnc1-c1cccc(NC(=O)c2cc3c(cc2F)CCN(C(=O)C2CCCC2)C3)n1 [Example 97] |
| > 1000 | CCN1CCc2cc(F)c(C(=O)Nc3cccc(-c4nnnn4C(C)C)n3)cc2C1=O [Example 98, 2-ethyl-6-fluoro-N-(6-(1-isopropyl-1H-tetrazol-5-yl)pyridin-2-yl)-1-oxo-1,2,3,4-tetrahydroisoquinoline-7-carboxamide] |
| 10 to 100 | CC(C)n1nnnc1-c1cccc(NC(=O)c2cc3c(cc2F)CCN(S(=O)(=O)CC(F)F)C3)n1 [Example 103] |
| 10 to 100 | CC(C)n1nnnc1-c1cccc(NC(=O)c2cc3c(cc2F)CCN(C(=O)N(C)CCC(F)(F)F)C3)n1 [Example 107] |
| 100 to 1000 | CC1c2cc(C(=O)Nc3cccc(-c4nnnn4C(C)C)n3)c(F)cc2CCN1CC(=O)N1CCCC1 (centres unmarked) [Example 108, 6-fluoro-N-(6-(1-isopropyl-1H-tetrazol-5-yl)pyridin-2-yl)-1-methyl-2-(2-oxo-2-(pyrrolidin-1-yl)ethyl)-1,2,3,4-tetrahydroisoquinoline-7-carboxamide] |
